Usually bioavailability stands for the share of a dose that reaches the circulation, judged against a reference dose that is usually intravenous.

The data set in a line: Oral bioavailability in human. The data set is classed as ADME, organism-based. The settings on record: in vivo.

The compound `CCC(CC)O[C@@H]1C=C(C(=O)O)C[C@H](N)[C@H]1NC(C)=O` [OSELTAMIVIR CARBOXYLATE] had a bioavailability of 5%.
With `CCOC(=O)C1=C[C@@H](OC(CC)CC)[C@H](NC(C)=O)[C@@H](N)C1` [OSELTAMIVIR] the figure was 80%.

The values are drawn from ChEMBL document CHEMBL4007385, “Prodrug approach: An overview of recent cases” (Eur J Med Chem, 2017).
